In patent publication US20260285866A1, “MODULATORS OF TRPML, THEIR COMPOSITIONS AND METHODS OF USE” (Caraway Therapeutics, Inc., priority 2024, published 2026) one finds EC50 data, which are given here for 14 molecules.

Structures are written as SMILES. pEC50: −log10 of the molar value. Some results are limits rather than exact numbers.

Assay type in all cases: cell-based
One assay has as its target Human TRPML1 (Homo sapiens, UniProt Q9GZU1, L15A/L16A/L577A/L578A). Briefly: Fluorescent TRPML1 assay (Fluo4-AM, HEK-293 Trex cells expressing hTRPML1). The conditions noted are these: fluorescent calcium assay, doxycycline-induced hTRPML1. As to the method:
Example 27. Fluorescent TRPML Assays
(§1) HEK-293 Trex cells were stably transfected with a construct consisting of the human coding sequence for TRPML1 cloned into the tet-inducible plasmid pCDNA5 T/O. Mutations were introduced into the TRPML1 sequence to facilitate expression on the cell surface (Silvia Vergarajauregui, Rosa Puertollano Traffic. 2006 March; 7(3): 337-353). Briefly, the cells are cultured in 150 mm round tissue culture dishes containing 20 mL of media. The day before the assay the cells are rinsed with DPBS-Ca-Mg and then treated briefly with Trypsin-EDTA. The Trypsin-EDTA is diluted with growth media, and cells are counted. 38×10^6 cells are re-plated into 150 mm round tissue culture dishes in media containing 0.5 μg/mL doxycycline to induce expression of hTRPML1.
(§2) The day of the experiment cells are lifted from the plates as above and collected by centrifugation. The cells are then suspended in dye loading buffer consisting of Ringer's solution supplemented with 0.1% Pluronic Acid and 1 micromolar Fluo4-AM dye. Cells are loaded for ~60 minutes in the dark with occasional mixing. The cells are collected by centrifugation, the loading media aspirated, and the cells resuspended in 25 mL Ringer's solution and incubated ~60 minutes in the dark. The cells are again collected by centrifugation, rinsed in Ringer's Solution and resuspended to 0.2×10^6 cells/mL in modified Ringer's solution containing 10 mM calcium.
(§3) Compounds are dissolved to a concentration of 10 millimolar with DMSO. Compound plates are created by dispensing compounds into 384 well black wall clear bottom plates (Greiner 781091). Positive and negative controls are included on each plate. Typically, different amounts of each compound are tested ranging from 100 nanoMoles (20 micromolar final concentration) decreasing in half-log steps to 31 picoMoles (6 nanomolar final concentration). Each concentration is typically tested in triplicate.
(§4) 50 microliters of dye-loaded cells are dispensed into each well of the compound assay plate created above. The fluorescence in each well is then determined with an excitation wavelength of 480 nm and an emission wavelength of 540 nm using either a Molecular Devices SpectraMax multimode plate reader or a Hamamatsu FDSS/uCell plate imager.
(§5) The resulting fluorescence for each well is exported as an ascii file and loaded into our LIMS for analysis. The percent activity of each compound at each concentration is determined by comparison to the positive and negative control wells included in each plate.
(§6) EC50 values were calculated using a non-linear regression of Prism. In the table, “A” indicates an EC50 of less than 100 nM, “B” indicates an EC50 range from 100 nM to 500 nM: “C” indicates an EC50 range from 500 nM to 2 μM; and “D” indicates an EC50 greater than 2 μM.

In a further assay the target is T1, Human TRPML2 (Homo sapiens, UniProt Q8IZK6).
T1 construct: expressed in transfected cells
T1 sequence (Q8IZK6 1-566): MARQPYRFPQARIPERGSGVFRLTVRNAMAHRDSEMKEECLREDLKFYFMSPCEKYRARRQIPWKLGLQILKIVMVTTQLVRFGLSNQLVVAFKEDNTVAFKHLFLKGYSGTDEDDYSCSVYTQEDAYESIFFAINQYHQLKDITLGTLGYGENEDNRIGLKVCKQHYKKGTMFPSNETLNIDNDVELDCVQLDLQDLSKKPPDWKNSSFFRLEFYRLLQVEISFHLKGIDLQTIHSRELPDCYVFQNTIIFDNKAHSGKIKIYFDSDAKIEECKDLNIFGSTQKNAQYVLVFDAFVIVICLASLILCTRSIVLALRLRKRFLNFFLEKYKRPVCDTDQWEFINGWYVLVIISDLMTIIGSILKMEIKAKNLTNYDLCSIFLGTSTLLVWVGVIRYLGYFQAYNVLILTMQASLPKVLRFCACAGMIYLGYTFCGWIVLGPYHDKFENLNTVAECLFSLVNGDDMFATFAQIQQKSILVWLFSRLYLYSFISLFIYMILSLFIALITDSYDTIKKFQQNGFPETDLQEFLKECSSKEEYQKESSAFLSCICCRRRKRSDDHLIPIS
Briefly: Fluorescent TRPML2 assay (as for TRPML1). The conditions noted are these: fluorescent calcium assay as for TRPML1, TRPML2 subtype. As to the method:
as §1, §2, §3, §4, §5
(§7) Assays for TRPML2 and TRPML3 were performed as above for TRPML1, by substituting the appropriate TRPML2 or TRPML3 subtype for the TRPML1.
as §6

The target of another assay is T2, Human TRPML3 (Homo sapiens, UniProt Q8TDD5).
T2 construct: expressed in transfected cells
T2 sequence (Q8TDD5 1-553): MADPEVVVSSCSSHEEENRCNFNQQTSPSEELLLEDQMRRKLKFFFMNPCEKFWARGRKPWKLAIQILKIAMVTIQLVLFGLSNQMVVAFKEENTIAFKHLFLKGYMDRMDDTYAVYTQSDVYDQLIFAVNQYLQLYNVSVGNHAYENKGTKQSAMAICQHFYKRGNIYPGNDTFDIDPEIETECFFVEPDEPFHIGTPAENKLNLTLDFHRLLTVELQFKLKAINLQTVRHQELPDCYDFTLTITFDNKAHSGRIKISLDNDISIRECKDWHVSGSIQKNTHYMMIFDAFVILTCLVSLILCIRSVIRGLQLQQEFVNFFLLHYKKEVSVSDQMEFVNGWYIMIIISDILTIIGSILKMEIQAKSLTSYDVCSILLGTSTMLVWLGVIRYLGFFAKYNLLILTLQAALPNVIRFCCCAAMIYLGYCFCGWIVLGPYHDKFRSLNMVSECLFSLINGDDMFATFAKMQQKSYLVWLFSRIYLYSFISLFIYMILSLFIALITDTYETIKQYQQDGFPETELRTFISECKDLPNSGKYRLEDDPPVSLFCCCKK
Briefly: Fluorescent TRPML3 assay (as for TRPML1). Conditions: fluorescent calcium assay as for TRPML1, TRPML3 subtype. As to the method: as §1, §2, §3, §4, §5, §7, §6

Human TRPML1, sequence (Q9GZU1 whole entry L15A/L16A/L577A/L578A): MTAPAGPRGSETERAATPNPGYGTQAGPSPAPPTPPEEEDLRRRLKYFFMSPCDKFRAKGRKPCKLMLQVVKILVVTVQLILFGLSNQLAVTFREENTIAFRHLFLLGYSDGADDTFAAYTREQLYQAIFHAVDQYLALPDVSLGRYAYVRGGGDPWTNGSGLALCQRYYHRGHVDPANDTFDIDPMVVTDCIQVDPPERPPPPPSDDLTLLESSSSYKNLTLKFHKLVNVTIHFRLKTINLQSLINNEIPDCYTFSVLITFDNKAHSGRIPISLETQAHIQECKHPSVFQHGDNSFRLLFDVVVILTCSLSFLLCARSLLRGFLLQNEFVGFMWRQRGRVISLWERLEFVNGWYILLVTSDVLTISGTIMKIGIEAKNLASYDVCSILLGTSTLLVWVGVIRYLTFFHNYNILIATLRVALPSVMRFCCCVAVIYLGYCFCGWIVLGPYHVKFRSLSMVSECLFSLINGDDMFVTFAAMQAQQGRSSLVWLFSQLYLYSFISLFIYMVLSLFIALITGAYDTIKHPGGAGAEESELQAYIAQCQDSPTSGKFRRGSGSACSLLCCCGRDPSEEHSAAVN

Consider `COC1(C(=O)N2C[C@H](C)N(c3ncnc4c3c(-c3ccccc3F)cn4-c3cc(C#N)ccn3)C[C@H]2C)COC1` [Compound 166, 2-(5-(2-fluorophenyl)-4-((2S,5R)-4-(3-methoxyoxetane-3-carbonyl)-2,5-dimethylpiperazin-1-yl)-7H-pyrrolo[2,3-d]pyrimidin-7-yl)isonicotinonitrile], for which the pEC50 at Human TRPML1 was greater than 7.00; at Human TRPML2, 5.70 to 6.30; at Human TRPML3, greater than 7.00.
`C[C@@H]1CN(c2ncnc3c2c(-n2cccn2)cn3-c2cc(C#N)ccn2)[C@@H](C)CN1C(=O)C(C)(C)O` [Compound 133, 2-(4-((2S,5R)-4-(2-hydroxy-2-methylpropanoyl)-2,5-dimethylpiperazin-1-yl)-5-(1H-pyrazol-1-yl)-7H-pyrrolo[2,3-d]pyrimidin-7-yl)isonicotinonitrile]: the pEC50 on Human TRPML1 was 5.70 to 6.30; at Human TRPML2, less than 5.70; at Human TRPML3, 5.70 to 6.30.
Regarding `C[C@@H]1CN(c2ncnc3c2c(-c2ccccc2)cn3-c2cc(C#N)ccn2)[C@@H](C)CN1C(=O)C1(O)COC1` [Compound 120, 2-(4-((2S,5R)-4-(3-hydroxyoxetane-3-carbonyl)-2,5-dimethylpiperazin-1-yl)-5-phenyl-7H-pyrrolo[2,3-d]pyrimidin-7-yl)isonicotinonitrile], the negative logarithm of the EC50 (pEC50) is 6.30 to 7.00 at Human TRPML1, less than 5.70 on Human TRPML2 and 5.70 to 6.30 at Human TRPML3.
With `CCC(O)(CC)C(=O)N1C[C@H](C)N(c2ncnc3c2c(-c2ccccc2)cn3-c2cc(C#N)ccn2)C[C@H]1C` [Compound 108, 2-(4-((2S,5R)-4-(2-ethyl-2-hydroxybutanoyl)-2,5-dimethylpiperazin-1-yl)-5-phenyl-7H-pyrrolo[2,3-d]pyrimidin-7-yl)isonicotinonitrile], the pEC50 on Human TRPML1 was greater than 7.00; at Human TRPML2, 5.70 to 6.30; on Human TRPML3 it was 6.30 to 7.00.
The corresponding values for `C[C@@H]1CN(c2ncnc3c2c(-c2ccncc2)cn3-c2cc(C#N)ccn2)[C@@H](C)CN1C(=O)C(C)(C)O` [Compound 125, 2-(4-((2S,5R)-4-(2-hydroxy-2-methylpropanoyl)-2,5-dimethylpiperazin-1-yl)-5-(pyridin-4-yl)-7H-pyrrolo[2,3-d]pyrimidin-7-yl)isonicotinonitrile] are 6.30 to 7.00, less than 5.70 and 5.70 to 6.30.
Turning to `C[C@@H]1CN(c2ncnc3c2c(-c2ccncc2)cn3-c2cccc(F)c2)[C@@H](C)CN1C(=O)C(C)(C)O` [Compound 139, 1-((2R,5S)-4-(7-(3-fluorophenyl)-5-(pyridin-4-yl)-7H-pyrrolo[2,3-d]pyrimidin-4-yl)-2,5-dimethylpiperazin-1-yl)-2-hydroxy-2-methylpropan-1-one], the pEC50 at Human TRPML1 and on Human TRPML3 was less than 5.70 each time.
Turning to `C[C@H]1CN(c2ncnc3c2c(-c2ccccc2F)cn3-c2cc(C#N)ccn2)[C@@H](C)CN1C(=O)C(C)(C)O` [Compound 169, 2-(5-(2-fluorophenyl)-4-((2S,5S)-4-(2-hydroxy-2-methylpropanoyl)-2,5-dimethylpiperazin-1-yl)-7H-pyrrolo[2,3-d]pyrimidin-7-yl)isonicotinonitrile], the pEC50 at Human TRPML1 is 5.70 to 6.30; on Human TRPML3, less than 5.70.
Taken in the same sequence, the figures for `C[C@@H]1CN(c2ncnc3c2c(-c2ccccc2)cn3-c2cc(C#N)ccn2)[C@@H](C)CN1C(=O)C1(O)CC1` [Compound 156, 2-(4-((2S,5R)-4-(1-hydroxycyclopropane-1-carbonyl)-2,5-dimethylpiperazin-1-yl)-5-phenyl-7H-pyrrolo[2,3-d]pyrimidin-7-yl)isonicotinonitrile] were 5.70 to 6.30 and less than 5.70.
The corresponding values for `C[C@@H]1CN(c2ncnc3c2c(-n2ccnc2)cn3-c2cc(C#N)ccn2)[C@@H](C)CN1C(=O)C(C)(C)O` [Compound 132, 2-(4-((2S,5R)-4-(2-hydroxy-2-methylpropanoyl)-2,5-dimethylpiperazin-1-yl)-5-(1H-imidazol-1-yl)-7H-pyrrolo[2,3-d]pyrimidin-7-yl)isonicotinonitrile] are less than 5.70 and less than 5.70.
The corresponding values for `C[C@@H]1CN(c2nccc3c2c(-c2ccncc2)cn3-c2cccc(F)c2)[C@@H](C)CN1C(=O)C(C)(C)O` [Compound 144, 1-((2R,5S)-4-(1-(3-fluorophenyl)-3-(pyridin-4-yl)-1H-pyrrolo[3,2-c]pyridin-4-yl)-2,5-dimethylpiperazin-1-yl)-2-hydroxy-2-methylpropan-1-one] are less than 5.70 and less than 5.70.
For `CC(C)[C@H]1CN(C(=O)C(C)(C)O)CCN1c1ncnc2c1c(-c1ccccc1)cn2-c1cc(C#N)ccn1` [Compound 112, (S)-2-(4-(4-(2-hydroxy-2-methylpropanoyl)-2-isopropylpiperazin-1-yl)-5-phenyl-7H-pyrrolo[2,3-d]pyrimidin-7-yl)isonicotinonitrile], the pEC50 at Human TRPML1 and at Human TRPML3 was 5.70 to 6.30 throughout.
Take `C[C@@H]1CN(c2ncnc3c2c(-c2cncnc2)cn3-c2cc(C#N)ccn2)[C@@H](C)CN1C(=O)C(C)(C)O` [Compound 116, 2-(4-((2S,5R)-4-(2-hydroxy-2-methylpropanoyl)-2,5-dimethylpiperazin-1-yl)-5-(pyrimidin-5-yl)-7H-pyrrolo[2,3-d]pyrimidin-7-yl)isonicotinonitrile]: the negative-log EC50 (pEC50) at Human TRPML1 and at Human TRPML3 was less than 5.70 in each case.
For `C[C@@H]1CN(c2ncnc3c2c(-c2ncco2)cn3-c2cc(C#N)ccn2)[C@@H](C)CN1C(=O)C(C)(C)O` [Compound 134, 2-(4-((2S,5R)-4-(2-hydroxy-2-methylpropanoyl)-2,5-dimethylpiperazin-1-yl)-5-(oxazol-2-yl)-7H-pyrrolo[2,3-d]pyrimidin-7-yl)isonicotinonitrile], the results for the pEC50 on Human TRPML1 and at Human TRPML3 were 5.70 to 6.30 and less than 5.70, respectively.
Taken in the same sequence, the figures for `C[C@@H]1CN(c2ncnc3c2c(C2CC2)cn3-c2cc(C#N)ccn2)[C@@H](C)CN1C(=O)CC(C)(C)O` [Compound 160, 2-(5-cyclopropyl-4-((2S,5R)-4-(3-hydroxy-3-methylbutanoyl)-2,5-dimethylpiperazin-1-yl)-7H-pyrrolo[2,3-d]pyrimidin-7-yl)isonicotinonitrile] were 5.70 to 6.30 and 5.70 to 6.30.
